Experimental data published in publication PMC10734772 (Turkish Journal of Chemistry, 2021).

Experiments:
Type in all cases: cell-based
[1] = tested on: Jurkat; assay: MTT assay, Jurkat cells; details: Homo sapiens, 24 h, read-out: Viability rate
Protocol: (§1) K562, Jurkat, Molt-4, and Nalm-6 cell lines were cultured in RPMI-1640 medium (ECM2001, Euroclone), Reh cell line was cultured in DMEM medium (LM-D1111-Biosera) Hek293T cell line was cultured in IMDM medium (AL070A - HiMedia) supplemented with 10% heat-inactivated fetal bovine serum (F7524-Merck & Co., USA,) penicillin and streptomycin (P4333-Sigma Aldrich). K562, Jurkat and Molt-4 cell lines were seeded as 4x10^5/ml, Reh and Nalm-6 cell lines were seeded 5x10^5/ml, Hek293T cell line was seed as 2x10^5/ml. All cells were incubated at 5% CO2 and 37 °C. All cell lines were kindly provided by Dr. M. Sayitoglu and Dr. Ö. Hatirnaz-Ng from Acibadem University.
(§2) MTT assay is a 3-day test. On the first day, cell count was performed in Bio Rad TC-20 device with the help of trypan blue, each cell line was prepared by diluting to the specified concentrations and seeded in a 96-well plate as 100μL to each well and incubated for 1 day.
(§3) Each compound was solved in DMSO, their stock solutions (33.3, 10, 5, 1 mM, and 300 μM) were prepared by diluting with the same solvent and they were stored under −20°C when they were not used.
(§4) On the second day, stock solutions were subsequently diluted to various concentrations (0.3–200 μM) with related medium prior to experiments. Specified concentrations of the compounds were seeded in a 96-well plate as 100μL to each well and incubated for 24 h.
(§5) After incubation (on the third day), to precipitate leukemia cells, the cell plate was centrifuged at 1500 rpm for 5 min. Then, 100 μL of supernatant was removed from each well carefully and 10 μl of MTT solution (5 mg/mL) was added to each well and incubated at 37 °C for 4 h. The 50 μl of supernatant was discarded from each well and 100 μl of DMSO was added to dissolve the formazan. Plates were shaken for 45 min to dissolve the dye. Then the optical density of each well was measured by using Thermo VarioSkan Flush Multimode Reader Quantum ST5-1100 at 570 nm wavelength.
(§6) Subsequently, viability rate of the cells at each concentration, as percentage, was determined by following formula (1):
(§7) Viability rate (%)=100-[(OD(control)-OD(sample))/OD(control)×100].OD=Optical Density
(§8) The IC50 values were calculated by using GraphPad Prism. All the data presented as the mean of 6 replicates. Results were analyzed and illustrated with Graph Pad Prism (version 5; GraphPad Software, San Diego, CA, USA). Statistical analysis was performed using dose-response inhibition, log(inhibitor) vs response-variable slope, least squares (ordinary) fit.
(§9) To evaluate in-vitro anti-cancer activity of the newly synthesized compounds, they were tested by using the MTT assay in the BCR-ABL positive leukemic cell line (K562), BCR-ABL negative leukemic cell lines (Nalm-6, Molt-4, Reh and Jurkat), and non-leukemic human embryonic kidney tissue (Hek293T) cell line. […] The viability rate of each concentration was calculated by the formula stated in material and methods, the viability rate results for each cell were presented in Table S2 and Figure S44.

[2] = tested on: Reh; assay: MTT assay, Reh cells; details: Homo sapiens, 24 h, read-out: Viability rate
Protocol: as §1, §2, §3, §4, §5, §6, §7, §8, §9

[3] = tested on: Nalm-6; assay: MTT assay, Nalm-6 cells; details: Homo sapiens, 24 h, MTT, read-out: Viability rate
[4] = tested on: Molt-4; assay: MTT assay, Molt-4 cells; details: Homo sapiens, MOLT-4, 24 h, read-out: Viability rate
Protocol: as §1, §2, §3, §4, §5, §6, §7, §8, §9

[5] = MTT assay, Hek293T non-leukemic control cells; details: human, read-out: Viability rate
Protocol: as §1, §2, §3, §4, §5, §6, §7, §8, §9

[6] = tested on: K562; assay: MTT assay, K562 cells; details: Homo sapiens, 24 h, MTT, read-out: Viability rate
Protocol: After incubation (on the third day), to precipitate leukemia cells, the cell plate was centrifuged at 1500 rpm for 5 min. […] The 50 μl of supernatant was discarded from each well and 100 μl of DMSO was added to dissolve the formazan. Plates were shaken for 45 min to dissolve the dye. Then the optical density of each well was measured by using Thermo VarioSkan Flush Multimode Reader Quantum ST5-1100 at 570 nm wavelength.
The IC50 values were calculated by using GraphPad Prism. All the data presented as the mean of 6 replicates. […] Statistical analysis was performed using dose-response inhibition, log(inhibitor) vs response-variable slope, least squares (ordinary) fit.

## Cc1ccc(NC(=O)c2ccc(CN3CCN(C)CC3)cc2)cc1Nc1nccc(-c2cccnc2)n1 [imatinib, reference compound]
[1]; 0.3 μM
  viability at 0.3 µM: 68.4 ± 0.12%
[1]; 0.5 μM
  viability at 0.5 µM: 63.9 ± 0.03%
[1]; 1 μM
  viability at 1 µM: 61.5 ± 0.07%
[1]; 3 μM
  viability at 3 µM: 61.3 ± 0.05%
[1]; 5 μM
  viability at 5 µM: 60.7 ± 0.08%
[1]; 10 μM
  viability at 10 µM: 60.6 ± 0.14%
[1]; 15 μM
  viability at 15 µM: 57.9 ± 0.05%
[1]; 20 μM
  viability at 20 µM: 46.8 ± 0.05%
[1]; 30 μM
  viability at 30 µM: 34.5 ± 0.04%
[1]; 50 μM
  viability at 50 µM: 26.2 ± 0.05%
[1]; 70 μM
  viability at 70 µM: 17.8 ± 0.02%
[1]; 100 μM
  viability at 100 µM: 17.5 ± 0.01%
[1]; 150 μM
  viability at 150 µM: 17.3 ± 0.01%
[1]; 200 μM
  viability at 200 µM: 16.6%
[2]; 0.3 μM
  viability at 0.3 µM: 97.6 ± 0.03%
[2]; 0.5 μM
  viability at 0.5 µM: 96.8 ± 0.03%
[2]; 1 μM
  viability at 1 µM: 96.4 ± 0.01%
[2]; 3 μM
  viability at 3 µM: 95.5 ± 0.02%
[2]; 5 μM
  viability at 5 µM: 94.5 ± 0.03%
[2]; 10 μM
  viability at 10 µM: 91.3 ± 0.05%
[2]; 15 μM
  viability at 15 µM: 82.4 ± 0.02%
[2]; 20 μM
  viability at 20 µM: 78.6 ± 0.02%
[2]; 30 μM
  viability at 30 µM: 70.9 ± 0.03%
[2]; 50 μM
  viability at 50 µM: 63.5 ± 0.04%
[2]; 70 μM
  viability at 70 µM: 62.9 ± 0.03%
[2]; 100 μM
  viability at 100 µM: 61.2 ± 0.01%
[2]; 150 μM
  viability at 150 µM: 60.3 ± 0.03%
[2]; 200 μM
  viability at 200 µM: 57 ± 0.02%
[3]; Nalm-6, 0.3 μM
  viability at 0.3 µM: 91 ± 0.08%
[3]; Nalm-6, 0.5 μM
  viability at 0.5 µM: 90.7 ± 0.06%
[3]; Nalm-6, 1 μM
  viability at 1 µM: 90.1 ± 0.09%
[3]; Nalm-6, 3 μM
  viability at 3 µM: 84.7 ± 0.09%
[3]; Nalm-6, 5 μM
  viability at 5 µM: 84.5 ± 0.05%
[3]; Nalm-6, 10 μM
  viability at 10 µM: 72.9 ± 0.03%
[3]; Nalm-6, 15 μM
  viability at 15 µM: 57.1 ± 0.02%
[3]; Nalm-6, 20 μM
  viability at 20 µM: 52.7 ± 0.01%
[3]; Nalm-6, 30 μM
  viability at 30 µM: 50.7 ± 0.03%
[3]; Nalm-6, 50 μM
  viability at 50 µM: 39.7 ± 0.01%
[3]; Nalm-6, 70 μM
  viability at 70 µM: 32.5 ± 0.05%
[3]; Nalm-6, 100 μM
  viability at 100 µM: 32.2 ± 0.02%
[3]; Nalm-6, 150 μM
  viability at 150 µM: 32.5 ± 0.01%
[3]; Nalm-6, 200 μM
  viability at 200 µM: 29%
[4]; Molt-4, 0.3 μM
  viability at 0.3 µM: 75.6 ± 0.18%
[4]; Molt-4, 0.5 μM
  viability at 0.5 µM: 74.9 ± 0.18%
[4]; Molt-4, 1 μM
  viability at 1 µM: 75.1 ± 0.19%
[4]; Molt-4, 3 μM
  viability at 3 µM: 73.8 ± 0.17%
[4]; Molt-4, 5 μM
  viability at 5 µM: 72.7 ± 0.25%
[4]; Molt-4, 10 μM
  viability at 10 µM: 70.7 ± 0.21%
[4]; Molt-4, 15 μM
  viability at 15 µM: 70.2 ± 0.1%
[4]; Molt-4, 20 μM
  viability at 20 µM: 63.4 ± 0.1%
[4]; Molt-4, 30 μM
  viability at 30 µM: 63.3 ± 0.06%
[4]; Molt-4, 50 μM
  viability at 50 µM: 55.5 ± 0.05%
[4]; Molt-4, 70 μM
  viability at 70 µM: 52.1 ± 0.1%
[4]; Molt-4, 100 μM
  viability at 100 µM: 41.2 ± 0.06%
[4]; Molt-4, 150 μM
  viability at 150 µM: 29.8 ± 0.04%
[4]; Molt-4, 200 μM
  viability at 200 µM: 20.3 ± 0.02%
[5]; Hek293T cells (non-leukemic control cell line), 0.3 μM
  viability at 24 h, 0.3 µM: 83.4 ± 0.02%
[5]; Hek293T cells (non-leukemic control cell line), 0.5 μM
  viability at 24 h, 0.5 µM: 78.6 ± 0.04%
[5]; Hek293T cells (non-leukemic control cell line), 3 μM
  viability at 24 h, 3 µM: 73.1 ± 0.03%
[5]; Hek293T cells (non-leukemic control cell line), 5 μM
  viability at 24 h, 5 µM: 71.5 ± 0.02%
[5]; Hek293T cells (non-leukemic control cell line), 10 μM
  viability at 24 h, 10 µM: 67.9 ± 0.01%
[5]; Hek293T cells (non-leukemic control cell line), 15 μM
  viability at 24 h, 15 µM: 59.6 ± 0.01%
[5]; Hek293T cells (non-leukemic control cell line), 20 μM
  viability at 24 h, 20 µM: 55.7 ± 0.03%
[5]; Hek293T cells (non-leukemic control cell line), 30 μM
  viability at 24 h, 30 µM: 53.5 ± 0.01%
[5]; Hek293T cells (non-leukemic control cell line), 50 μM
  viability at 24 h, 50 µM: 48.5 ± 0.05%
[5]; Hek293T cells (non-leukemic control cell line), 70 μM
  viability at 24 h, 70 µM: 42.9 ± 0.03%
[5]; Hek293T cells (non-leukemic control cell line), 100 μM
  viability at 24 h, 100 µM: 42.7 ± 0.03%
[5]; Hek293T cells (non-leukemic control cell line), 150 μM
  viability at 24 h, 150 µM: 42.5 ± 0.02%
[5]; Hek293T cells (non-leukemic control cell line), 200 μM
  viability at 24 h, 200 µM: 42.1 ± 0.01%
[5]; Hek293T cells, 1 μM
  viability at 24 h, 1 µM: 77.7 ± 0.03%
[6]; K562, 0.3 μM
  viability at 0.3 µM: 98 ± 0.03%
[6]; K562, 0.5 μM
  viability at 0.5 µM: 97.4 ± 0.06%
[6]; K562, 1 μM
  viability at 1 µM: 95.4 ± 0.07%
[6]; K562, 3 μM
  viability at 3 µM: 95.3 ± 0.05%
[6]; K562, 5 μM
  viability at 5 µM: 95.4 ± 0.09%
[6]; K562, 10 μM
  viability at 10 µM: 94.8 ± 0.09%
[6]; K562, 15 μM
  viability at 15 µM: 88.5 ± 0.1%
[6]; K562, 20 μM
  viability at 20 µM: 87 ± 0.04%
[6]; K562, 30 μM
  viability at 30 µM: 72.8 ± 0.06%
[6]; K562, 50 μM
  viability at 50 µM: 60.8 ± 0.1%
[6]; K562, 70 μM
  viability at 70 µM: 60 ± 0.07%
[6]; K562, 100 μM
  viability at 100 µM: 51.3 ± 0.05%
[6]; K562, 150 μM
  viability at 150 µM: 35.1 ± 0.01%
[6]; K562, 200 μM
  viability at 200 µM: 29.7%
